Measured values: patent US4603130A, “1-substituted-2-(piperazinyl or homopiperazinyl)-benzimidazole compounds and pharmaceutical composition” (Kanebo, Ltd., priority 1983, dated 1986)
Structures can show the parent of a compound that is named as a salt.

Assays:
[1] = test system: histamine-induced lethality; test: Protecting activity against histamine-induced lethality (similar to Labelle-Tislow method), oral; format: in vivo, Hartley strain male and female guinea pigs; conditions: Cavia porcellus, 2 h, guinea pig, p.o. 1 h before histamine 1.1 mg/kg i.v., survival after two hours, Probit method, Example 9 as free base, others as fumarate
Protocol: 1. Protecting activity against histamine-induced lethality:
(3) Homochlorcyclizine hydrochloride (reference compound)
The test was carried out by a method similar to Labelle-Tislow method [cf. J. Pharmacol. Exp. Ther., 113, 72, 1955]. […] After one hour, histamine (1.1 mg/kg, in a physiological saline solution) was injected to the animals in cephalic vein. After two hours, the number of live guinea pigs was counted, and therefrom ED50 of the compounds was calculated according to Probit method.

[2] = in vivo; conditions: mouse, in vivo, po; mice, p.o., deaths within one week; Weil's method; Example 9 as free base, others as fumarate; read-out: Acute Toxicity LD50
Excerpt: (§1) 2. Acute toxicity (LD50):
(§2) The same compounds as used in the above protecting activity against histamine were used.

[3] = test system: mice; test: in vivo; conditions: p.o., deaths within one week, Weil's method, Example 9 as free base, others as fumarate, 10080 min
Excerpt: as §1, §2

[4] = test system: hexobarbital-induced sleep; test: Potentiating effect on hexobarbital-induced sleep in mice; format: in vivo; conditions: 25 mg/kg (p.o.)
Excerpt: Besides, the conventional antihistaminics have side-effect such as hypnotic activity.

[5] = among compounds of U.S. Pat. No. 3,423,413; cited from earlier work

Which ED50 [1] does the source give for CCOCCn1c(CN2CCCN(C)CC2)nc2ccccc21 [Example 4, 1-(2-ethoxyethyl)-2-(4-methyl-1-homopiperazinyl)methylbenzimidazole] here?
The ED50 was 0.0092 mg/kg.

What about the LD50 at 168 h [2] of the same molecule?
The LD50 at 168 h was 990 mg/kg.

Which results are given for CCOCCn1c(CN2CCN(CC)CC2)nc2ccccc21 [Example 5, 1-(2-ethoxyethyl)-2-(4-ethyl-1-piperazinyl)methylbenzimidazole]?
ED50 [1]: 0.0067 mg/kg; LD50 at 168 h [2]: 904 mg/kg

Which ED50 [1] does the source give for CCOCCn1c(CN2CCCNCC2)nc2ccccc21 [Example 2, 1-(2-ethoxyethyl)-2-(1-homopiperazinyl)methylbenzimidazole] here?
The ED50 was 0.014 mg/kg.

And the LD50 at 168 h [2]?
The LD50 at 168 h was 1540 mg/kg.

For C#CCOCCn1c(CN2CCCN(C)CC2)nc2ccccc21 [Example 12, 1-(2-propargyloxyethyl)-2-(4-methyl-1-homopiperazinyl)methylbenzimidazole], which ED50 [1] is on record?
The ED50 was 0.017 mg/kg.

What about the LD50 at 168 h [2] of the same molecule?
Its LD50 at 168 h is 524 mg/kg.

With C=COCCn1c(CN2CCN(C)CC2)nc2ccccc21 [Example 9, 1-(2-vinyloxyethyl)-2-(4-methyl-1-piperazinyl)methylbenzimidazole] as the molecule, how does the ED50 [1] read?
The ED50 was 0.0071 mg/kg.

What about the LD50 at 168 h [2] of the same molecule?
The LD50 at 168 h was 698 mg/kg.

Which results are given for CN1CCCN(C(c2ccccc2)c2ccc(Cl)cc2)CC1 (stereo not drawn) [Homochlorcyclizine hydrochloride, reference compound]?
ED50 [1]: 0.26 mg/kg; Acute Toxicity LD50 [3]: 382 mg/kg; potentiating effect on hexobarbital-induced sleep [4]: showed remarkable potentiating effect

For CCCOCCn1c(CN2CCN(C)CC2)nc2ccccc21 [Example 8, 1-(2-n-propoxyethyl)-2-(4-methyl-1-piperazinyl)methylbenzimidazole], which ED50 [1] is on record?
The ED50 was 0.0059 mg/kg.

And the LD50 at 168 h [2]?
The LD50 at 168 h was 1010 mg/kg.

Which results are given for C=CCOCCn1c(CN2CCN(C)CC2)nc2ccccc21 [Example 10, 1-(2-allyloxyethyl)-2-(4-methyl-1-piperazinyl)methylbenzimidazole]?
ED50 [1]: 0.0059 mg/kg; LD50 at 168 h [2]: 657 mg/kg

Which ED50 [1] does the source give for OCCN1CCN(Cc2nc3ccccc3n2Cc2ccc(F)cc2)CC1 [Compound A, 1-(4-fluorobenzyl)-2-[4-(2-hydroxyethyl)-1-piperazinyl]methylbenzimidazole, reference compound] here?
Its ED50 is 0.026 mg/kg.

And the LD50 at 168 h [2]?
Its LD50 at 168 h is 440 mg/kg.

And the anti-allergic activity [5]?
The anti-allergic activity was “most potent anti-allergic activity”.

What does the source list for CCOCCn1c(CN2CCN(CCO)CC2)nc2ccccc21 [Example 7, 1-(2-ethoxyethyl)-2-[4-(2-hydroxyethyl)-1-piperazinyl]methylbenzimidazole]?
ED50 [1]: 0.004 mg/kg; LD50 at 168 h [2]: > 2000 mg/kg

Which results are given for CCCN1CCN(Cc2nc3ccccc3n2CCOCC)CC1 [Example 6, 1-(2-ethoxyethyl)-2-(4-n-propyl-1-piperazinyl)methylbenzimidazole]?
ED50 [1]: 0.0095 mg/kg; LD50 at 168 h [2]: 303 mg/kg

Which ED50 [1] does the source give for CCOCCn1c(CN2CCN(C)CC2)nc2ccccc21 [Example 3, 1-(2-ethoxyethyl)-2-(4-methyl-1-piperazinyl)methylbenzimidazole] here?
Its ED50 is 0.0026 mg/kg.

What about the LD50 at 168 h [2] of the same molecule?
Its LD50 at 168 h is 789 mg/kg.

With CCOCCn1c(CN2CCNCC2)nc2ccccc21 [Example 1, 1-(2-ethoxyethyl)-2-(1-piperazinyl)methylbenzimidazole] as the molecule, how does the ED50 [1] read?
Its ED50 is 0.0033 mg/kg.

And the LD50 at 168 h [2]?
Its LD50 at 168 h is over 2000 mg/kg.

What does the source list for C#CCOCCn1c(CN2CCN(C)CC2)nc2ccccc21 [Example 11, 1-(2-propargyloxyethyl)-2-(4-methyl-1-piperazinyl)methylbenzimidazole]?
ED50 [1]: 0.0023 mg/kg; LD50 at 168 h [2]: 891 mg/kg
